Results: patent US6596722B2, “Piperidine, tetrahydropyridine and piperazine derivatives, their preparation and use” (H. Lundbeck A/S, priority 1999, dated 2003)
Where a name gives a salt, the structure may show the parent alone. Read-outs that look alike come from different tables or passages of the source.

Experiments:
human 5-HT1A receptors = target: T1, human 5-HT1A receptors (Homo sapiens, UniProt P08908); test: Inhibition of 3H-5-CT binding to human 5-HT1A receptors
T1 construct: expressed in transfected cells; host or cells: HeLa cells (HA7)
T1 sequence (P08908 1-422): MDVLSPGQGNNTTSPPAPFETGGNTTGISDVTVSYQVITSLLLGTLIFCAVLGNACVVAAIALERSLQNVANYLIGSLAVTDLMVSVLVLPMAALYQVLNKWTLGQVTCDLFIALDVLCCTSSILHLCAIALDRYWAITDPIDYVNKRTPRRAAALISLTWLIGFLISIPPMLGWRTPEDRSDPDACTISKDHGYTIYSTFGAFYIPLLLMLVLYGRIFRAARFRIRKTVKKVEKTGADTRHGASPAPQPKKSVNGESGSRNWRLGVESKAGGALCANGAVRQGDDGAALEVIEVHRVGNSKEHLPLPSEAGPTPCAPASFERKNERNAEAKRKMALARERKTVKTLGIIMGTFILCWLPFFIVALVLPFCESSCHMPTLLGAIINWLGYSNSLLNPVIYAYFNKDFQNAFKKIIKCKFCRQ
Procedure: Inhibition of ^3H-5-CT Binding to Human 5-HT1A Receptors.
Human 5-HT1A receptors (40 μg of cell homogenate) were incubated for 15 minutes at 37° C. in 50 mM Tris buffer at pH 7.7 in the presence of ^3H-5-CT. Non-specific binding was determined by including 10 μM of metergoline. The reaction was terminated by rapid filtration through Unifilter GF/B filters on a Tomtec Cell Harvester. Filters were counted in a Packard Top Counter.

[1] = target: T2, 3H-5-HT uptake into whole rat brain synaptosomes (serotonin reuptake) (Rattus norvegicus, UniProt P31652); test: Inhibition of 3H-5-HT uptake into rat brain synaptosomes; type: biochemical
T2 construct: from tissue; host or cells: whole rat brain synaptosomes
Procedure: Inhibition of ^3H-5-HT Uptake Into Rat Brain Synaptosomes.
Using this method, the ability of drugs to inhibit the accumulation of ^3H-5-HT into whole rat brain synaptosomes is determined in vitro.

[2] = target: T3, cloned 5-HT1A receptors stably expressed in transfected HeLa cells (HA7) (Homo sapiens, UniProt P08908); test: 5-HT1A antagonistic activity: antagonism of 5-HT induced inhibition of forskolin induced cAMP accumulation; type: cell-based; conditions: HeLa cells (HA7) expressing cloned 5-HT1A receptors
T3 construct: expressed in transfected cells; host or cells: HeLa cells (HA7)
T3 sequence (P08908 1-422): T1 sequence (P08908 1-422)
Procedure: The assay was performed as a modification of the method described by Pauwels, P. J. et al, Biochem. Pharmacol. 1993, 45, 375.

[3] = cloned human 5-HT1A receptors in HeLa cells (HA7) homogenate, 15 minutes at 37° C., pH 7.7
[4] = 3H-5-HT accumulation into whole rat brain synaptosomes, in vitro, read-out: Inhibition of serotonin reuptake IC50

T2 sequence (P31652 whole entry): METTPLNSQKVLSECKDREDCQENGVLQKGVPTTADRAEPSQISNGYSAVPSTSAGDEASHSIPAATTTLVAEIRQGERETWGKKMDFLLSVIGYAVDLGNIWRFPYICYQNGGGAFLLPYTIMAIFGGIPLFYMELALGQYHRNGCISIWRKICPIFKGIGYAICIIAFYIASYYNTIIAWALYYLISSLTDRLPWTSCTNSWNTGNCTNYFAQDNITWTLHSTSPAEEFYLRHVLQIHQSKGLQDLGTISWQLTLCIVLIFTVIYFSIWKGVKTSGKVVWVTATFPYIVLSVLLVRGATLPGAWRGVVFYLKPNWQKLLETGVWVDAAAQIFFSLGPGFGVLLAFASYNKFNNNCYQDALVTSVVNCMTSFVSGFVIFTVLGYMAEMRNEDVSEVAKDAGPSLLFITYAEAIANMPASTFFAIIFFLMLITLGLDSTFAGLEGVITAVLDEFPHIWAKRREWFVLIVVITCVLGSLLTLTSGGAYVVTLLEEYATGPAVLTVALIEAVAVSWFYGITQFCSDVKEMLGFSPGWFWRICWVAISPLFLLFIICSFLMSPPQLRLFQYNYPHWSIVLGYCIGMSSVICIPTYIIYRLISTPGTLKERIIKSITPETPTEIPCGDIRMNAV

Row | SMILES | melting point | IC50 (human 5-HT1A receptors; [3]) | IC50 [1, 4] | IC50 [2] | further results
1 | C(=CC1CCc2ccccc21)CCN1CCN(c2cccc3c2OCCO3)CC1 (stereo not drawn) (as salt: oxalate) [Compound 1b, 1-[1,4-Benzodioxan-5-yl]-4-[1-(indan-1-yl)-1-buten-4-yl]piperazine] | 154 to 157 °C |  |  |  | 
2 | c1ccc2c(c1)CCC2CCCCN1CCN(c2cccc3c2OCCO3)CC1 (stereo not drawn) (as salt: oxalate) [Compound 1c, 1-[1,4-Benzodioxan-5-yl]-4-[1-(indan-1-yl)-4-butyl]piperazine] | 154 to 155 °C |  |  |  | 
3 | Clc1ccc2c(CCN3CCN(c4cccc5c4OCCO5)CC3)n[nH]c2c1 (as salt: oxalate) [Compound 2b, 1-[1,4-Benzodioxan-5-yl]-4-[2-(6-chloroindazol-3-yl)ethyl]piperazine] | 111 to 113 °C |  |  |  | 
4 | c1cc2c(c(N3CCN(CCc4coc5ccccc45)CC3)c1)OCCO2 (as salt: oxalate) [Compound 3f, 1-[1,4-Benzodioxan-5-yl]-4-[2-(benzofuran-3-yl)ethyl]piperazine] | 206 to 208 °C |  |  |  | 
5 | Clc1ccc2occ(CCN3CC=C(c4cccc5c4OCC5)CC3)c2c1 (as salt: oxalate) [Compound 3g, 1-[2-(5-chlorobenzofuran-3-yl)ethyl]-4-[2,3-dihydrobenzofuran-7-yl]-1,2,3,6-tetrahydropyridine] | 187 to 202 °C |  |  |  | 
6 | Fc1ccc2occ(CCN3CC=C(c4cccc5ccoc45)CC3)c2c1 (as salt: oxalate) [Compound 3h, 4-[Benzofuran-7-yl]-1-[2-(5-fluorobenzofuran-3-yl)ethyl]-1,2,3,6-tetrahydropyridine] | 201 to 211 °C |  |  |  | 
7 | C1=CC(CCCCN2CCN(c3cccc4c3OCCO4)CC2)c2ccccc21 (stereo not drawn) [Compound 1a, 1-[1,4-Benzodioxan-5-yl]-4-[1-(inden-1-yl)-4-butyl]piperazine] |  | 1.7 nM | 61 nM | 170 nM | 
8 | C(=CC1CCc2ccccc21)CCN1CCN(c2cccc3c2OCCO3)CC1 (stereo not drawn) [Compound 1b, 1-[1,4-Benzodioxan-5-yl]-4-[1-(indan-1-yl)-1-buten-4-yl]piperazine] |  | 6.1 nM |  |  | 
9 | c1ccc2c(c1)CCC2CCCCN1CCN(c2cccc3c2OCCO3)CC1 (stereo not drawn) [Compound 1c, 1-[1,4-Benzodioxan-5-yl]-4-[1-(indan-1-yl)-4-butyl]piperazine] |  | 2.5 nM | 130 nM |  | 
10 | Fc1ccc2occ(CCN3CCN(c4cccc5c4OCCO5)CC3)c2c1 [Compound 2a, 1-[1,4-Benzodioxan-5-yl]-4-[2-(5-fluorobenzofuran-3-yl)ethyl]piperazine] |  | 14 nM | 0.69 nM | 100 nM | 
11 | c1cc2c(c(N3CCN(CCc4coc5ccccc45)CC3)c1)OCCO2 [Compound 3f, 1-[1,4-Benzodioxan-5-yl]-4-[2-(benzofuran-3-yl)ethyl]piperazine] |  |  |  | 290 nM | IC50 (human 5-HT1A receptors): 8.3 nM; IC50 [1]: 12 nM
12 | Clc1ccc2occ(CCN3CC=C(c4cccc5c4OCC5)CC3)c2c1 [Compound 3g, 1-[2-(5-chlorobenzofuran-3-yl)ethyl]-4-[2,3-dihydrobenzofuran-7-yl]-1,2,3,6-tetrahydropyridine] |  |  | 160 nM |  | IC50 (human 5-HT1A receptors): 24 nM
13 | Fc1ccc2occ(CCN3CC=C(c4cccc5ccoc45)CC3)c2c1 [Compound 3h, 4-[Benzofuran-7-yl]-1-[2-(5-fluorobenzofuran-3-yl)ethyl]-1,2,3,6-tetrahydropyridine] |  |  |  |  | IC50 (human 5-HT1A receptors): 11 nM; IC50 [1]: 43 nM

More lines, main results first:

Row | melting point | IC50 (human 5-HT1A receptors; [3]) | IC50 [1, 4] | IC50 [2] | SMILES | further results
14 | 187 to 189 °C |  |  |  | Fc1ccc2c(CCCN3CCN(c4cccc5c4OCCO5)CC3)noc2c1 (as salt: fumarate) [Compound 3b, 1-[1,4-Benzodioxan-5-yl]-4-[3-(6-fluorobenzo[1,2]isoxazol-3-yl)-1-propyl]piperazine] | 
15 | 204 to 206 °C |  |  |  | Cc1cccc2occ(CCN3CCN(c4cccc5c4OCCO5)CC3)c12 (as salt: oxalate) [Compound 3c, 1-[1,4-Benzodioxan-5-yl]-4-[2-(4-methylbenzofuran-3-yl)ethyl]piperazine] | 
16 | 206 to 208 °C |  |  |  | Clc1ccc2occ(CCN3CCN(c4cccc5c4OCCO5)CC3)c2c1 (as salt: oxalate) [Compound 3d, 1-[1,4-Benzodioxan-5-yl]-4-[2-(5-chlorobenzofuran-3-yl)ethyl]piperazine] | 
17 | 174 to 176 °C |  |  |  | Cc1ccc2c(CCN3CCN(c4cccc5c4OCCO5)CC3)coc2c1 (as salt: oxalate) [Compound 3e, 1-[1,4-Benzodioxan-5-yl]-4-[2-(6-methylbenzofuran-3-yl)ethyl]piperazine] | 
18 | 190 to 192 °C |  |  |  | Clc1cccc2c(CCN3CCN(c4cccc5c4OCCO5)CC3)coc12 (as salt: oxalate) [Compound 3i, 1-[1,4-Benzodioxan-5-yl]-4-[2-(7-chlorobenzofuran-3-yl)ethyl]piperazine] | 
19 |  | 9.3 nM | 160 nM |  | Clc1ccc2c(CCN3CCN(c4cccc5c4OCCO5)CC3)n[nH]c2c1 [Compound 2b, 1-[1,4-Benzodioxan-5-yl]-4-[2-(6-chloroindazol-3-yl)ethyl]piperazine] | 
20 |  | 29 nM | 170 nM |  | Fc1ccc2occ(CCN3CCN(c4cccc5ccoc45)CC3)c2c1 [Compound 3a, 1-[Benzofuran-7-yl]-4-[2-(5-fluorobenzofuran-3-yl)ethyl]piperazine] | 
21 |  | 7.5 nM | 240 nM | 74 nM | Fc1ccc2c(CCCN3CCN(c4cccc5c4OCCO5)CC3)noc2c1 [Compound 3b, 1-[1,4-Benzodioxan-5-yl]-4-[3-(6-fluorobenzo[1,2]isoxazol-3-yl)-1-propyl]piperazine] | 
22 |  | 19 nM | 11 nM | 2300 nM | Cc1cccc2occ(CCN3CCN(c4cccc5c4OCCO5)CC3)c12 [Compound 3c, 1-[1,4-Benzodioxan-5-yl]-4-[2-(4-methylbenzofuran-3-yl)ethyl]piperazine] | 
23 |  | 18 nM | 34 nM | 550 nM | Clc1ccc2occ(CCN3CCN(c4cccc5c4OCCO5)CC3)c2c1 [Compound 3d, 1-[1,4-Benzodioxan-5-yl]-4-[2-(5-chlorobenzofuran-3-yl)ethyl]piperazine] | 
24 |  | 8.8 nM | 58 nM | 1400 nM | Cc1ccc2c(CCN3CCN(c4cccc5c4OCCO5)CC3)coc2c1 [Compound 3e, 1-[1,4-Benzodioxan-5-yl]-4-[2-(6-methylbenzofuran-3-yl)ethyl]piperazine] | 
25 |  | 2.1 nM | 1.5 nM | 1500 nM | Clc1cccc2c(CCN3CCN(c4cccc5c4OCCO5)CC3)coc12 [Compound 3i, 1-[1,4-Benzodioxan-5-yl]-4-[2-(7-chlorobenzofuran-3-yl)ethyl]piperazine] | 
26 |  |  | 32 nM | 260 nM | Cc1ccc(Cl)c2occ(CCCN3CCN(c4cccc5c4OCCO5)CC3)c12 [Compound 4a, 1-[1,4-Benzodioxan-5-yl]-4-[3-(7-chloro-4-methylbenzofuran-3-yl)-1-propyl]piperazine] | 
27 |  | 2.9 nM | 15 nM | 390 nM | Cc1cccc2occ(CCCN3CCN(c4cccc5c4OCCO5)CC3)c12 [Compound 5a, 1-[1,4-Benzodioxan-5-yl]-4-[3-(4-methylbenzofuran-3-yl)-1-propyl]piperazine] | 
